From ChEMBL document CHEMBL5550181 (Bioorg Med Chem, 2024)
Activity calls are given as the source filed them. No cut-off for these calls is given here.

Key:
[1] = molecular target: T1, Proteasome subunit beta type-8 (Homo sapiens, UniProt P28062); assay: Inhibition of human LMP7 beta -5i subunit using Ac-ANW-AMC as substrate preincubated with compound for 30 mins followed by substrate addition and measured after 1 hr by fluorescence based analysis
T1 sequence (P28062 whole entry): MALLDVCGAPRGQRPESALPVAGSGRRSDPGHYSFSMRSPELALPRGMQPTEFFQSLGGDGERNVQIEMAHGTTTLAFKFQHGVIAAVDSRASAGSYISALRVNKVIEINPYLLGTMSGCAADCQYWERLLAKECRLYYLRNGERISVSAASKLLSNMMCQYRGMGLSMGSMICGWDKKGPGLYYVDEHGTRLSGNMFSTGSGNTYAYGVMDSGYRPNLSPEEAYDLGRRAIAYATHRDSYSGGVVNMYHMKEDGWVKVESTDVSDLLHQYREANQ

[2] = molecular target: T2, Proteasome subunit beta type-9 (Homo sapiens, UniProt P28065); assay: Inhibition of human LMP2 beta-1i subunit using Ac-PAL-AMC as substrate preincubated with compound for 30 mins followed by substrate addition and measured after 1 hr by fluorescence based analysis
T2 sequence (P28065 whole entry): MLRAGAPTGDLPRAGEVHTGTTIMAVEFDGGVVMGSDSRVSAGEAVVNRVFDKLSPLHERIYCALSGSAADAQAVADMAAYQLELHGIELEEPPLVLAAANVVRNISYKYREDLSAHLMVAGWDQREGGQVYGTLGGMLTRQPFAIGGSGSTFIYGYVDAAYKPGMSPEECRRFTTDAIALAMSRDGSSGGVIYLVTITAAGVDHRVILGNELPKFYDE

[3] = molecular target: T3, Proteasome Macropain subunit MB1 (Homo sapiens, UniProt P28074); assay: Inhibition of human 20S proteosome beta5c subunit using Ac-WLA-AMC as substrate preincubated with compound for 30 mins followed by substrate addition and measured after 1 hr by fluorescence based analysis
T3 sequence (P28074 whole entry): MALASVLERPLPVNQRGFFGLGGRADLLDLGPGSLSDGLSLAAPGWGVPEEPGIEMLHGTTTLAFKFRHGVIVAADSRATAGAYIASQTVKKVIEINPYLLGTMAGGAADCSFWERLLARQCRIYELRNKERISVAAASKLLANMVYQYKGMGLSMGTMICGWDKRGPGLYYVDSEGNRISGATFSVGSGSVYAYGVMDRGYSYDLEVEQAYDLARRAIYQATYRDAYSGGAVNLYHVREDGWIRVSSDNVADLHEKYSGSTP

[4] = species on record: Homo sapiens; assay: Selectivity index, ratio of IC50 for inhibition of human 20S proteosome beta5c subunit using Ac-WLA-AMC as substrate to IC50 for inhibition of human LMP7 beta -5i subunit using Ac-ANW-AMC as substrate
[5] = species on record: Homo sapiens; assay: Selectivity index, ratio of IC50 for inhibition of human 20S proteosome beta5c subunit using Ac-WLA-AMC as substrate to IC50 for inhibition of human LMP2 beta-1i subunit using Ac-PAL-AMC as substrate
[6] = Drug metabolism in human liver microsomes assessed as reactive metabolite formation by measuring dGSH trapping measured per mg of protein incubated for 60 mins in presence of NADPH by HPLC analysis; format: ADME, Microsome; details: 1 h
[7] = Permeability of the compound by PAMPA assay; format: ADME; details: read-out: permeability
[8] = Microsomal stability in mouse liver microsome assessed as intrinsic clearance; format: ADME; details: liver microsomes, read-out: CLH
[9] = system: Mus musculus; assay: Inhibition of NP30-IgG production in NP-OVA-induced po dosed C57BL/6 mouse model administered for 9 days by ELISA analysis; format: functional, organism-based; details: dose 3-30 mg/kg, time 9.0 day
[10] = system: Mus musculus; assay: Reduction in NP30-specific IgG level in GCB of NP-OVA-induced C57BL/6 mouse model at 10 to 30 mg/kg, po administered for 9 days by flow cytometry analysis; format: functional, organism-based; details: dose 10-30 mg/kg, time 9.0 day
[11] = system: Plasma; assay: Reduction in NP30-specific IgG level in plasma of NP-OVA-induced C57BL/6 mouse model at 30 mg/kg, po administered for 9 days by ELISA analysis; format: functional, organism-based; details: time 9.0 day
[12] = Effect on hematological parameters in C57BL/6 mouse at 3 to 30 mg/kg, po administered for 9 days; format: toxicity, organism-based; details: in vivo, 216 h, dose 3-30 mg/kg, time 9 day

Structure (SMILES) | IC50 [1] [nM] | IC50 [2] [nM] | IC50 [3] [nM] | Ratio IC50 [4] | Ratio IC50 [5] | Drug metabolism [6] [pmol/h] | Papp [7] [×10⁻⁶ cm/s] | microsomal CLint [8] [µL/min/mg] | inhibition [9] | Activity [10] | Activity [11] | Activity [12]
O=C(N[C@@H](Cc1coc2ccccc12)B(O)O)[C@@H]1C[C@H]2CC[C@@H]1O2 | 8 | > 80000 | 2410 | 302 |  |  |  |  |  |  |  | 
CC(C)C[C@H](NC(=O)c1cc(C2CCCCC2)n(C)n1)B(O)O | 11200 | 188 | > 80000 | > 7 |  |  |  |  |  |  |  | 
O=C(N[C@@H](CC1CCC1)B(O)O)c1cn(C2CCCCC2)nn1 | 198 | < 5 | 13100 | 66 |  |  |  |  |  |  |  | 
O=C(N[C@H](B(O)O)C1CCCC1)c1cn(C2CCCCC2)nn1 | 132 | 18 | 5200 | 39 |  |  |  |  |  |  |  | 
O=C(N[C@H](B(O)O)C1CCC1)c1cn(C2CCCCC2)nn1 | 655 | < 5 | 4950 | 8 |  |  |  |  |  |  |  | 
CC(C)C[C@H](NC(=O)c1cc(C2CCCCC2)on1)B(O)O | 145 | 9 | 2980 | 21 |  |  |  |  |  |  |  | 
COc1ccc([C@@H](O)[C@H](NC(=O)[C@H](C)NC(=O)CN2CCOCC2)C(=O)N[C@@H](CC2=CCCC2)C(=O)[C@@]2(C)CO2)cc1 [ZETOMIPZOMIB] | 75 | 557 | 720 | 9.6 | 1.29 |  |  |  |  |  |  | 
O=C(N[C@@H](CC1CCCCC1)B(O)O)c1cn(C2CCCCC2)nn1 | 130 | < 10 | 19500 | 150 |  | 680 |  |  |  |  |  | 
O=C(N[C@H](B(O)O)C1CCCCC1)c1cn(C2CCCCC2)nn1 | 257 | 10 | 44600 | 174 |  | 342 | 11.9 | 99 | Dose-Dependent Effect | Active | Active | Non-Toxic
O=C(N[C@@H](Cc1ccccc1)B(O)O)c1cn(C2CCCCC2)nn1 | 8 | 5 | 302 | 38 |  | 736 |  |  |  |  |  | 
CC(C)C[C@H](NC(=O)c1cc(C2CCCCC2)no1)B(O)O | 192 | 5 | 3690 | 19 |  |  |  |  |  |  |  | 
O=C(N[C@@H](CC1CCCC1)B(O)O)c1cn(C2CCCCC2)nn1 | 63 | < 5 | 15400 | 244 |  | 426 |  |  |  |  |  | 

Further lines, with some results ahead:

IC50 [1] [nM] | IC50 [2] [nM] | IC50 [3] [nM] | Ratio IC50 [4] | Ratio IC50 [5] | Drug metabolism [6] [pmol/h] | Papp [7] [×10⁻⁶ cm/s] | microsomal CLint [8] [µL/min/mg] | Structure (SMILES) | inhibition [9] | Activity [10] | Activity [11] | Activity [12]
888 | 226 | 19500 | 22 |  |  |  |  | CC(C)C[C@H](NC(=O)c1cc(C2CCCCC2)nn1C)B(O)O |  |  |  | 
73 | 3 | 3220 | 44 | 1070 | 1273 |  |  | CC(C)C[C@H](NC(=O)c1cn(C2CCCCC2)nn1)B(O)O |  |  |  | 
1210 | 189 | 47300 | 39 |  |  |  |  | Cc1c(C(=O)N[C@@H](CC(C)C)B(O)O)nnn1C1CCCCC1 |  |  |  | 
18800 | 132 | > 80000 | > 4 |  |  |  |  | CC(C)C[C@H](NC(=O)c1cnn(C2CCCCC2)c1)B(O)O |  |  |  | 
82 | 10 | 2950 | 36 |  |  |  |  | CC(C)C[C@H](NC(=O)c1ccc(C2CCCCC2)nn1)B(O)O |  |  |  | 
1570 | 62 | 6310 | 4 |  |  |  |  | CC(C)C[C@H](NC(=O)c1cnn(C2CCCCC2)n1)B(O)O |  |  |  | 
